Source: ChEMBL document CHEMBL3745696, “Synthesis and cytotoxic activity of novel hexahydropyrrolo[2,3-b]indole imidazolium salts” (Bioorg Med Chem Lett, 2016)

Assays:
[1] = tested on: A549; test: Cytotoxicity against human A549 cells by MTT assay; format: functional, cell-based
[2] = tested on: MCF7; test: Cytotoxicity against human MCF7 cells by MTT assay; format: functional, cell-based
[3] = Cytotoxicity against human SMMC7721 cells by MTT assay; format: functional, cell-based; conditions: SMMC-7721
[4] = tested on: SW480; test: Potency index, ratio IC50 of cisplatin to IC50 of compound for cytotoxicity against human SW480 cells; format: functional
[5] = tested on: SW480; test: Cytotoxicity against human SW480 cells by MTT assay; format: functional, cell-based
[6] = Potency index, ratio IC50 of cisplatin to IC50 of compound for cytotoxicity against human SMMC7721 cells; format: functional, SMMC-7721
[7] = Cytotoxicity against human HL60 cells by MTT assay; format: functional, cell-based; conditions: HL-60
[8] = tested on: A549; test: Potency index, ratio IC50 of cisplatin to IC50 of compound for cytotoxicity against human A549 cells; format: functional
[9] = tested on: MCF7; test: Potency index, ratio IC50 of cisplatin to IC50 of compound for cytotoxicity against human MCF7 cells; format: functional

SMILES | IC50 [1] | IC50 [2] | IC50 [3] | Ratio IC50 [4] | IC50 [5] | Ratio IC50 [6] | IC50 [7] | Ratio IC50 [8] | Ratio IC50 [9]
Cc1cc2c(cc1C)[n+](Cc1ccccc1Br)cn2CC(=O)N1CCC2(C)c3ccccc3N(Cc3ccccc3)C12.[Br-] (centres undefined) | 2.68 µM | 1.78 µM | 1.72 µM | 6.2 | 1.44 µM | 4.7 | 1.27 µM | 2.6 | 
Cc1ccc(C[n+]2cn(CC(=O)N3CCC4(C)c5ccccc5N(C)C34)c3cc(C)c(C)cc32)cc1 (centres undefined) | 10.5 µM | 5.79 µM | 4.52 µM |  | 7.57 µM |  | 1.52 µM |  | 
COc1ccc(C(=O)C[n+]2cn(CC(=O)N3CCC4(C)c5ccccc5N(C)C34)c3ccccc32)cc1 (centres undefined) | > 20 µM | > 20 µM | > 20 µM |  | > 20 µM |  | > 20 µM |  | 
c1c[nH]cn1 [IMIDAZOLE] | > 20 µM | > 20 µM | > 20 µM |  | > 20 µM |  | > 20 µM |  | 
Cc1n(CC(=O)N2CCC3(C)c4ccccc4N(Cc4ccccc4)C23)c2ccccc2[n+]1Cc1ccc2ccccc2c1.[Br-] (centres undefined) | 6.26 µM | 1.46 µM | 1.8 µM |  | 1.64 µM |  | 1.38 µM |  | 7.2
Cc1cc2c(cc1C)[n+](Cc1ccc(Br)cc1)cn2CC(=O)N1CCC2(C)c3ccccc3N(C)C12 (centres undefined) | 17.4 µM | 3.08 µM | 5.69 µM |  | 6.9 µM |  | 1.73 µM |  | 
Cc1nc2ccccc2n1CC(=O)N1CCC2(C)c3ccccc3N(C)C12 (centres undefined) | > 20 µM | > 20 µM | > 20 µM |  | > 20 µM |  | > 20 µM |  | 
Cc1cc2c(cc1C)[n+](Cc1ccc3ccccc3c1)cn2CC(=O)N1CCC2(C)c3ccccc3N(C)C12 (centres undefined) | 6.18 µM | 1.84 µM | 4.03 µM |  | 4.54 µM |  | 1.35 µM |  | 
Cc1cc2c(cc1C)[n+](Cc1ccc(Br)cc1)cn2CC(=O)N1CCC2(C)c3ccccc3N(Cc3ccccc3)C12 (centres undefined) | 6.37 µM | 1.72 µM | 3.59 µM |  | 1.41 µM |  | 1.29 µM |  | 
COc1ccc(C(=O)C[n+]2cn(CC(=O)N3CCC4(C)c5ccccc5N(Cc5ccccc5)C34)c3ccccc32)cc1 (centres undefined) | > 20 µM | 7.83 µM | 10 µM |  | 8.35 µM |  | 5.94 µM |  | 
Cc1n(CC(=O)N2CCC3(C)c4ccccc4N(C)C23)cc[n+]1CC(=O)c1ccc2ccccc2c1 (centres undefined) | > 20 µM | > 20 µM | > 20 µM |  | > 20 µM |  | > 20 µM |  | 
Cc1n(CC(=O)N2CCC3(C)c4ccccc4N(C)C23)c2ccccc2[n+]1CC(=O)c1ccccc1 (centres undefined) | > 20 µM | > 20 µM | > 20 µM |  | > 20 µM |  | > 20 µM |  | 
COc1ccc(C(=O)C[n+]2ccn(CC(=O)N3CCC4(C)c5ccccc5N(C)C34)c2C)cc1 (centres undefined) | > 20 µM | > 20 µM | > 20 µM |  | > 20 µM |  | > 20 µM |  | 
Cc1n(CC(=O)N2CCC3(C)c4ccccc4N(C)C23)cc[n+]1Cc1ccc(Br)cc1 (centres undefined) | > 20 µM | > 20 µM | > 20 µM |  | > 20 µM |  | > 20 µM |  | 
Cc1cc2c(cc1C)[n+](Cc1ccc3ccccc3c1)cn2CC(=O)N1CCC2(C)c3ccccc3N(Cc3ccccc3)C12 (centres undefined) | 4.8 µM | 1.68 µM | 2.27 µM |  | 1.76 µM |  | 1.21 µM |  | 
Cc1n(CC(=O)N2CCC3(C)c4ccccc4N(C)C23)c2ccccc2[n+]1CC(=O)c1ccc(Br)cc1 (centres undefined) | > 20 µM | > 20 µM | > 20 µM |  | > 20 µM |  | > 20 µM |  | 
Cc1n(CC(=O)N2CCC3(C)c4ccccc4N(C)C23)cc[n+]1CC(=O)c1ccccc1 (centres undefined) | > 20 µM | > 20 µM | > 20 µM |  | > 20 µM |  | > 20 µM |  | 
Cc1n(CC(=O)N2CCC3(C)c4ccccc4N(Cc4ccccc4)C23)cc[n+]1CC(=O)c1ccc(Br)cc1 (centres undefined) | > 20 µM | > 20 µM | > 20 µM |  | > 20 µM |  | 7.75 µM |  | 
Cc1ccc(C[n+]2ccn(CC(=O)N3CCC4(C)c5ccccc5N(C)C34)c2C)cc1 (centres undefined) | > 20 µM | > 20 µM | > 20 µM |  | > 20 µM |  | > 20 µM |  | 
Cc1ccc(C[n+]2cn(CC(=O)N3CCC4(C)c5ccccc5N(Cc5ccccc5)C34)c3cc(C)c(C)cc32)cc1 (centres undefined) | 4.84 µM | 1.86 µM | 1.74 µM |  | 1.77 µM |  | 1.23 µM |  | 
Cc1cc2c(cc1C)[n+](CC(=O)c1ccccc1)cn2CC(=O)N1CCC2(C)c3ccccc3N(C)C12 (centres undefined) | > 20 µM | 13.4 µM | > 20 µM |  | > 20 µM |  | 8.03 µM |  | 
Cc1n(CC(=O)N2CCC3(C)c4ccccc4N(C)C23)cc[n+]1CC(=O)c1ccc(Br)cc1 (centres undefined) | > 20 µM | > 20 µM | > 20 µM |  | > 20 µM |  | > 20 µM |  | 
COc1ccc(C(=O)C[n+]2c(C)n(CC(=O)N3CCC4(C)c5ccccc5N(Cc5ccccc5)C34)c3ccccc32)cc1 (centres undefined) | 12.5 µM | 6.99 µM | 8.83 µM |  | 8.38 µM |  | 4.18 µM |  | 
Cc1n(CC(=O)N2CCC3(C)c4ccccc4N(C)C23)c2ccccc2[n+]1CC(=O)c1ccc2ccccc2c1 (centres undefined) | 7.64 µM | 9.45 µM | 7.09 µM |  | 10.1 µM |  | 5.95 µM |  | 
CN1c2ccccc2C2(C)CCN(C(=O)Cn3ccnc3)C12 (centres undefined) | > 20 µM | > 20 µM | > 20 µM |  | > 20 µM |  | > 20 µM |  | 
Cc1n(CC(=O)N2CCC3(C)c4ccccc4N(Cc4ccccc4)C23)cc[n+]1CC(=O)c1ccc2ccccc2c1 (centres undefined) | 11.2 µM | 5.67 µM | 4.79 µM |  | 7.78 µM |  | 2.2 µM |  | 
